The numbers were not newly measured in patent US20250369953A1, “METHODS FOR MEASURING CIRCADIAN RHYTHM FACTORS” (priority 2024, published 2025), which cites them from elsewhere.

SMILES strings stand for the structures.

Turning to `COc1ccc2[nH]cc(CCNC(C)=O)c2c1` [Melatonin, N-acetyl-5-methoxytryptamine], the peak plasma concentrations entry (endogenous, nighttime sleep, occurring at approximately 02:00 am) was “approximately 70 μg/ml”. Also, where the note is “healthy young adult humans”, the metabolic clearance result is “approximately 1 liter per minute” and the volume of distribution result is listed as “approximately 40 liters”.
